Values quoted from earlier work, collected in patent publication US10842882B2, “Amatoxin-antibody conjugates” ([…] GMBH, priority 2015, dated 2020).

Target: RNA-polymerase II (Homo sapiens, UniProt P24928)
Conditions: amanitin/RNA-polymerase II complex, background statement

## amanitin
  Kd: 3 nM
